Reference: EP0942896B1, “SUBSTITUTED PHENOLS AND THIOPHENOLS USEFUL AS ANTIOXIDANT AGENTS” (Aventis Pharmaceuticals Inc., priority 1996, dated 1998)
Like-named read-outs stand apart in the source and are kept apart here.

Legend:
[1] = HPLC quantitation of compound and metabolite concentration in rabbit serum and liver; type: in vivo, Female New Zealand White rabbits; settings: female, New Zealand White, oral, 0.4 % in chow, diet 0.4%, 7 days, mean N = 5
Source text: (§1) Perform five independent experiments in the following manner. Each study has a control group and 1-5 groups treated with MDL compound (N = 5 per group). Feed Female New Zealand White rabbits (Hazelton, ∼ 2.0-2.3 kg) 0.2% cholesterol enriched rabbit chow (Purina #5322) with or without 0.4% MDL compound. Solubilize the MDL compounds in 100% ethanol. Spray the chow with the MDL mixtures and allow to dry overnight in a chemical fume hood. Spray control chow with ethanol. Feed rabbits 100 grams food per day for 7 days (0.6% MDL 103,491 were fed for 14 days); make available water ad libitum. On day 7, bleed (~ 2 mL) rabbits (fasted overnight) from a marginal ear vein. Euthanize rabbits by carbon dioxide overdose. Record the total body and liver weights in grams. Record food as grams • day^-1 · rabbit^-1. Use aliquots of fresh serum for clinical chemistries, lipoprotein cholesterol determination, thiobarbituric acid reactive substances (TBARS) and compound and metabolite concentrations in serum. Freeze livers (∼ 5 gram aliquots) at -20°C for compound and metabolite concentration determination at a later time.
Determine serum and liver concentrations of parent compounds and the metabolites, bisphenol and diphenoquinone, by reverse phase HPLC using a Waters 990 Powerline system. […] Calculate compound concentrations from known quantities of authentic parent compounds after correction for recovery. […]

[2] = Animal parameters (food, body weight, liver weight/body weight) in cholesterol-fed rabbits; type: in vivo, Female New Zealand White rabbits; settings: % of control, diet 0.4%, 7 days, 0.2% cholesterol chow, N = 5
Source text: as §1

oxidation of lipids = test: Conjugated diene lag phase determination on pooled serum of treated rats; type: in vivo, Male Sprague-Dawley rats; settings: not normalized, mean of 2 determinations of pooled rat serum (N = 5), diet 0.3%, 4 days
Source text: A typical experiment consists of 4-6 groups of rats (N = 5 per group) with I group being a control which receives no MDL compound and the other groups being treated with 0.3% MDL compound. Some of the compounds are either repeated at 0.3% or evaluated again at the lower dose of 0.1%. House Male Sprague-Dawley rats, 50-100 g, (Harlan Laboratories, Indianapolis, IN) in groups of 5, feeding ad libitum water and Purina Rodent chow (#5002) with or without MDL compound as a dietary admixture for 4 days. Make dietary admixtures (0.3%) by mixing 1.2 grams of an MDL compound with 400 grams of Purina rodent chow (#5002). Mix the MDL compound with approximately 50 grams of food using a mortar and pestle. This is added to the remainder of the food and mixed for 3 hours on a rotary mixer. In the morning of day 5, anesthetize non-fasted rats with carbon dioxide, and collect blood by cardiac puncture. Sacrifice rats by cervical dislocation. Record body weights and liver weights in grams. Record food consumption as grams • day^-1 • rat^-1. Deaths are recorded as mortality. Use aliquots of fresh serum for clinical chemistries, thiobarbituric acid reactive substances (TBARS) and conjugated diene measurements. Freeze aliquots of serum (∼ 0.5mL) and whole livers at -20°C for compound and metabolite concentration determination at a later time.
Conjugated diene lag phase is another indicator of the oxidation of lipids. Lipids exposed to Cu^++ form conjugated dienes that absorb ultraviolet light in the range of 230 to 235 nm. The lag phase of diene formation gives an indication of the amount of oxidation of the lipids. A lag phase longer than control samples indicate inhibition of the oxidation. Determine conjugated diene lay phase using a Varian DMS200 spectrophotometer (fitted with a constant temperature, 5 cuvette sample changer) at 30°C. Add twenty (20) µL of pooled serum to cuvettes containing 3.0mL phosphate buffered saline, pH 7.5, and mix. Measure the absorbances of all cuvettes and set the instrument baseline to zero using the lowest absorbing sample. Next, add 100µL of 1 mmol CuSO4 and mix immediately. Record the absorbance of each cuvette at 2 min intervals for a period of 840 min. Capture the data and transfer to a Microsoft EXCEL® spreadsheet where the curves are smoothed and differentials obtained. Determine lag times mathematically as minutes. Pool serum samples (N = 5); data presented are the mean values of 2 determinations. Compare serum samples from treated rats to serum samples from control rats that received no MDL compound.

VCAM-1 = test: Inhibition of VCAM-1 expression in proliferating human umbilical vein endothelial cells (cell ELISA); type: cell-based; settings: HUVEC, coincubated with tumor necrosis factor-alpha about 20 to 24 hr, average of three runs, numbers in parentheses represent negative values, read-out: VCAM-1 (% inh. 50 µM)
Experimental: Plate proliferating human umbilical vein endothelial cells (HUVEC) or human aortic smooth muscle cells (HASMC) from Clonetics (San Diego, CA) onto 96-well plates in 100 µL medium per well at 20,000 cells per cm^2. Maintain the cultures in growth medium (EGM or SMGM2, Clonetics, San Diego, CA) for two days prior to addition of cytokines or drugs. Add cytokines plus or minus compounds for 20 to 24 hours prior to analysis for adhesion molecule levels. Add tumor necrosis factor (Genzyme, Cambridge, MA) to cultures at 500-1000 units/mL to stimulate ICAM-1 expression. Add interleukin-4 (GIBCO-BRL, Gaithersburg, MD) to cultures at 100-200 pg/mL to stimulate VCAM-1 expression. […] Remove the culture medium, and wash the monolayers twice with Hanks buffered saline solution (HBSS) at room temperature. Add the primary antibody (anti-human VCAM-1 from Upstate Biotechnology, Inc., Lake Placid, NY or anti-human ICAM-1 from Immunotech, Inc., Westbrook, ME) to each well (1 µg/mL in HBSS plus 5% newborn calf serum, GIBCO-BRL, Gaithersburg, MD) and incubate at 37°C for 1 hr. Wash the wells twice with HBSS, then add 100 µL of a 1/1000 dilution of goat anti-mouse IgG conjugated to horse radish peroxidase (BioRad, Hercules, CA) in HBSS plus 5% newborn calf serum to each well and incubated for 1 hr at 37°C. […] Measure absorbance at 450 nm with a plate reader. […]

| SMILES | concentration at 7 day ([1]; parent compound concentration in rabbit liver, read-out: Liver Parent) | concentration at 7 day ([1]; parent compound concentration in rabbit serum, read-out: Serum Parent) | food ([2]; grams eaten per day per rabbit) | lw/bw ([2]; liver weight / body weight) | body wt. ([2]; weight in grams) | CONJ. DIENE (oxidation of lipids) | inhibition at 50 µM (VCAM-1) |
| --- | --- | --- | --- | --- | --- | --- | --- |
| CC(C)=CCC[C@H](C)CCOc1cc(C(C)(C)C)c(O)c(C(C)(C)C)c1 [MDL 103,294, Phenol, 2,6-bis(1,1-dimethylethyl)-4-[(3,7-dimethyl-6-octenyl)oxy]-, (S)-] | 77000 ng/g | 19800 ng/mL | 103% | 105% | 100% | – | – |
| CC(C)=CCCC(C)CCSc1cc(C(C)(C)C)c(O)c(C(C)(C)C)c1 (stereo not drawn) [MDL 103,960, Phenol, 2,6-bis(1,1-dimethylethyl)-4-[(3,7-dimethyl-6-octenyl)thio]-] | – | – | – | – | – | 363 min | 25.7% |
| CC(C)CCCC(C)CCOc1ccc(O)c(C(C)(C)C)c1 (stereo not drawn) [MDL 104,191, Phenol, 2-(1,1-dimethylethyl)-4-[(3,7-dimethyloctyl)oxy]-] | – | – | – | – | – | 708 min | 34.3% |
